Experimental data: PMC12372228 (Journal of the American Chemical Society, 2025)

What was measured:
HT-29 colon cancer cells = test: In vitro cytotoxicity, HT-29 colon cancer cells; assay type: cell-based; conditions: Homo sapiens, HT-29, 72 h
[1] = test system: HCT-116 colon cancer cells; test: In vitro cytotoxicity, HCT-116 colon cancer cells; conditions: Homo sapiens, HCT-116, 72 h
HT-29 tumors = test: Antitumor efficacy in nude mice bearing HT-29 tumors; assay type: in vivo; conditions: 66.7 mg/kg i.v. on days 1, 5, 9
HCT-116 tumors = test: Antitumor efficacy in nude mice bearing HCT-116 tumors; assay type: in vivo; conditions: 66.7 mg/kg i.v. on days 1, 5, 9; n = 5
healthy mice = conditions: dose used is near the reported MTD; cited from earlier work

Row | SMILES | IC50 (HT-29 colon cancer cells) [nM] | IC50 [1] [nM] | median survival (HT-29 tumors; n = 5 (TT 1 study)) [days] | median survival (HT-29 tumors; n = 7 (TT 7E study)) [days] | median survival (HCT-116 tumors) [days] | reported maximum tolerated dose (MTD) (healthy mice) [mg/kg]
1 | CC[C@@]1(O)C(=O)OCc2c1cc1n(c2=O)Cc2cc3ccccc3nc2-1 [CPT, camptothecin] | 64 | 40 | – | – | – | –
2 | CCc1c2c(nc3ccc(OC(=O)N4CCC(N5CCCCC5)CC4)cc13)-c1cc3c(c(=O)n1C2)COC(=O)[C@]3(O)CC [irinotecan] | – | – | 33 | 41 | 23 | ~66.7
